Measurements from the supplement of paper PMC8671470.

How the values were obtained:
Details in all cases: 72 h
HL-60 [1] = assay: area under dose-response curve (viability, 1 nM-10 uM) (fraction (0-1)); higher = more sensitive
Outline: (§1)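 HL-60 cells in RPMI 1640 with 10% FBS were rescreened against the full library on 384-well plates at five tenfold concentrations, 1–10,000 nM, in duplicate. Each screen was run with DMSO or 100 nM of one of three metabolic inhibitors, for 72 h at 37 °C, 5% CO2. Viability was read by CellTiter-Glo and normalised to DMSO and 10 μM proteasome-inhibitor wells. Where given, area under the curve came from four-parameter log-logistic fits (drc, PharmacoGx).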

KCL-22 [2] = system: KCL-22
Outline: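 Fifteen myeloid leukaemia cell lines were seeded in RPMI 1640 at densities titrated to the linear growth range and placed in 384-well plates with acoustically pre-printed compounds at five tenfold doses from 1 to 10,000 nM, in duplicate. After 72 h at 37 °C with 5% CO2, luminescent ATP viability was normalised to vehicle and to a positive control at 10 µM, and curves were fitted with a four-parameter log-logistic model. The IC50 was obtained from these fits.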

K-562 = assay: cell viability (% survival relative to DMSO control, bortezomib = 0%); higher = less cytotoxic
Outline: (§2)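 Percent survival figures are means of duplicate wells. They were obtained by CellTiter-Glo luminescence after 10 AML and 5 CML cell lines spent 72 h at 37 °C with 5% CO2 in 384-well plates with compounds at 1, 10, 100, 1000 or 10000 nM. Vehicle was set to 100% and a 10 µM positive control to 0%.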

HL-60 [3] = assay: as above
Outline: as §2

HEL = assay: as above
Outline: as §2

SHI-1 = assay: as above
Outline: as §2

THP-1 = assay: as above
Outline: as §2

BV-173 = assay: as above
Outline: as §2

KG-1 = assay: as above
Outline: as §2

KU-812 = assay: as above
Outline: as §2

MOLM-13 = assay: as above
Outline: as §2

MV4-11 = assay: as above
Outline: as §2

LAMA-84 = assay: as above
Outline: as §2

ML-2 = assay: as above
Outline: as §2

KCL-22 [4] = assay: as above
Outline: as §2

Mono-Mac-6 = assay: as above
Outline: as §2

NOMO-1 = assay: as above
Outline: as §2

HL-60 [5] = assay: cell viability (% survival relative to DMSO control); higher = less cytotoxic
Outline: as §1

CC(C)c1cc2c(c(O)c1O)[C@@]1(C(=O)O)CCCC(C)(C)[C@@H]1CC2 [Carnosic acid]
Details | area under dose-response curve, co-treatment: AZD3965 100 nM | area under dose-response curve, co-treatment: DMSO vehicle | area under dose-response curve, co-treatment: GSK2194069 100 nM | area under dose-response curve, co-treatment: pictilisib 100 nM | cell viability, 1 nM [%] | cell viability, 10 nM [%] | cell viability, 100 nM [%] | cell viability, 1000 nM [%] | cell viability, 10000 nM [%]
BV-173 | – | – | – | – | 87.5 | 96.7 | 98.2 | 82.6 | 43.8
HEL | – | – | – | – | 100 | 112 | 92.1 | 100 | 97.4
HL-60 [1] | < 0.0301 | < 0.0301 | < 0.0301 | < 0.0301 | – | – | – | – | –
HL-60 [3] | – | – | – | – | 99.7 | 97.3 | 89.3 | 91.5 | 109
K-562 | – | – | – | – | 105 | 93.4 | 89.4 | 87.4 | 83.2
KCL-22 [4] | – | – | – | – | 101 | 104 | 73.1 | 103 | 90.7
KG-1 | – | – | – | – | 92.4 | 96 | 96 | 104 | 103
KU-812 | – | – | – | – | 94.3 | 100 | 89.4 | 92.6 | 74.1
LAMA-84 | – | – | – | – | 97.7 | 98 | 102 | 91.1 | 96.6
ML-2 | – | – | – | – | 93.4 | 105 | 85.9 | 94.5 | 67.6
MOLM-13 | – | – | – | – | 101 | 120 | 84.7 | 124 | 106
MV4-11 | – | – | – | – | 98.5 | 103 | 93.5 | 91.7 | 79.9
Mono-Mac-6 | – | – | – | – | 92.7 | 102 | 103 | 90.4 | 64.3
NOMO-1 | – | – | – | – | 96.5 | 100 | 96.9 | 99 | 102
SHI-1 | – | – | – | – | 101 | 112 | 95 | 112 | 108
THP-1 | – | – | – | – | 98.3 | 101 | 109 | 83.9 | 66.9

Details | IC50 (cell viability) [nM]
KCL-22 [2] | > 10000

cell viability [%], HL-60 [5]
Details | 0.001 µM | 0.01 µM | 0.1 µM | 1 µM | 10 µM
co-treatment: AZD3965 100 nM | 98.3 | 101 | 117 | 98.58 | 100
co-treatment: DMSO vehicle | 96.16 | 100.2 | 99.2 | 97.53 | 103
co-treatment: GSK2194069 100 nM | 101 | 89.4 | 105 | 99.3 | 95.3
co-treatment: pictilisib 100 nM | 93.2 | 102 | 97.6 | 96.1 | 116

Nc1nc(Cl)nc2c1ncn2[C@H]1C[C@H](O)[C@@H](CO)O1 [Cladribine]
Details | area under dose-response curve, co-treatment: AZD3965 100 nM | area under dose-response curve, co-treatment: DMSO vehicle | area under dose-response curve, co-treatment: GSK2194069 100 nM | area under dose-response curve, co-treatment: pictilisib 100 nM | cell viability, 1 nM [%] | cell viability, 10 nM [%] | cell viability, 100 nM [%] | cell viability, 1000 nM [%] | cell viability, 10000 nM [%]
BV-173 | – | – | – | – | 128 | 4.77 | -0.0212 | 0.000225 | -0.197
HEL | – | – | – | – | 105 | 99.2 | 3.91 | 0.404 | 0.141
HL-60 [1] | 0.45 | 0.394 | 0.459 | 0.515 | – | – | – | – | –
HL-60 [3] | – | – | – | – | 108 | 88.3 | 26.6 | 1.62 | -0.177
K-562 | – | – | – | – | 110 | 97.5 | 79.8 | 28.8 | 20.5
KCL-22 [4] | – | – | – | – | 114 | 111 | 68.9 | 15.6 | 7.11
KG-1 | – | – | – | – | 101 | 105 | 102 | 9.9 | 5.04
KU-812 | – | – | – | – | 112 | 101 | 53.3 | 16.5 | 5.32
LAMA-84 | – | – | – | – | 112 | 100 | 51.1 | 5.53 | 1.72
ML-2 | – | – | – | – | 117 | 100 | 85.5 | 7.04 | 2.51
MOLM-13 | – | – | – | – | 100 | 87.2 | 4.48 | 0.607 | -0.282
MV4-11 | – | – | – | – | 129 | 81 | -0.607 | -0.0489 | -0.0474
Mono-Mac-6 | – | – | – | – | 113 | 82.5 | 1.25 | 0.0892 | -0.125
NOMO-1 | – | – | – | – | 111 | 101 | 21.5 | 1.41 | 0.34
SHI-1 | – | – | – | – | 87.7 | 88.7 | 13.6 | 0.494 | -0.0158
THP-1 | – | – | – | – | 102 | 93.7 | 102 | 24.2 | 26.3

Details | IC50 (cell viability) [nM]
KCL-22 [2] | 142

cell viability [%], HL-60 [5]
Details | 0.001 µM | 0.01 µM | 0.1 µM | 1 µM | 10 µM
co-treatment: AZD3965 100 nM | 100 | 104 | 67.648 | 3.68 | 3.27
co-treatment: DMSO vehicle | 101 | 104 | 88.9 | 3.39 | 4.06
co-treatment: GSK2194069 100 nM | 98.2 | 101 | 62.7 | 3.78 | 4.3
co-treatment: pictilisib 100 nM | 98.9 | 102 | 37.1 | 3.81 | 3.84
